Series [1] is described as follows: Metabolic stability assay, human liver microsome and homogenate incubations. The series is classed as in vitro ADME. The conditions noted are these: human liver homogenate or microsomes. Here is the method: Metabolic Stability Assay The in vitro metabolic stability of the compounds of the invention was determined for exemplified compounds using human liver microsome and homogenate incubations. The incubation time points used with or without appropriate cofactors were 0 min and 60 min. Samples were collected at both time points and substrates were detected using LC/PDA/TOF-MS. In vitro metabolic stability (% remaining after 60 min in human liver homogenate or microsomes) of the compounds were calculated and the results are summarized in Table 3.
(In general: Microsomes from liver hold many membrane-bound enzymes, among them those of drug oxidation.)

In series [2] the target is T1, Recombinant Human 17β-HSD2 (Homo sapiens, UniProt P37059).
T1 construct: made in house; host or cells: Sd9 (Sf9) insect cells, baculovirus (Bac to Bac Expression System)
T1 sequence (P37059 1-387): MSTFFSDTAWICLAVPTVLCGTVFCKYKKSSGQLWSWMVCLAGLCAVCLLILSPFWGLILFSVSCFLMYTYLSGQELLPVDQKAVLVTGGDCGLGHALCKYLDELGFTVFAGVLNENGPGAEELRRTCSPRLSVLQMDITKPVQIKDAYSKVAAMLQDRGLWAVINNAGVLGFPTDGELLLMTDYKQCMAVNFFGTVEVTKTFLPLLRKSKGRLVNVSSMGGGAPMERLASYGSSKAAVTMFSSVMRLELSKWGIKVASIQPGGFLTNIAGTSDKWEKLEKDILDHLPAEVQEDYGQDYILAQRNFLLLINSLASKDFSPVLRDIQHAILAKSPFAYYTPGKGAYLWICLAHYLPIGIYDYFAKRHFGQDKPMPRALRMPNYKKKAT
The series can be described thus: Inhibition of recombinant human 17β-HSD2 (conversion of 3H-estradiol to estrone, HPLC). The series is classed as biochemical. The conditions noted are these: inhibitor at 1 μM; 50 nM estradiol, 1 mM NADH, 30 min at RT; read-out: 17β-HSD2 Inhibition % at 1 μM. Here is the method: 17β-HSD2 Production and Isolation:
Similarly to 17β-HSD1 the Recombinant baculovirus was generated by the “Bac to Bac Expression System” (Invitrogen). Recombinant bacmid was transfected to Sd9 insect cells using “Cellfectin Reagent” (Invitrogen). 60 h later cells were harvested and supernatant were fractionated by the following protocol: • cells were dissolved into 40 ml of A-buffer (40 mM TRIS, pH8.0, 20% glycerol, 20 μM NAD, 0.4 mM PMSF, 150 mM NaCl, 0.5% dodecyl-β-maltoside+protease inhibitor cocktail) • cells were sonicated • lysate was incubated on ice for 15 min • lysate was centrifuged 5000 rpm 15 min, +4° C. • centrifugation of the supernatant 180.000 g 30 min, +4° C. • pellet was dissolved into 8 ml of A-buffer • not resuspended material was removed by centrifugation 5000 rpm 15 min, +4° C. • the clear supernatant was divided into 100 μl aliquots and were stored frozen until determination of enzymatic activity.
The amount of 17β-HSD2 was analysed by immunoblotting and total protein concentration of each extract batch was determined.
Assay—Inhibition of Recombinant Human 17β-HSD2:
Recombinant protein (4 μg/ml) was incubated in 20 mM KH2PO4 pH 8.5 with 50 nM estradiol (including 800.000 cpm/ml of ^3H-estradiol) and 1 mM NADH for 30 min at RT, in the presence of the potential inhibitor at concentrations 1 μM or 0.1 μM. Inhibitor stock solutions were prepared in DMSO. Final concentration of DMSO was adjusted to 1% in all samples. The enzyme reaction was stopped by addition of 10% trichloroacetic acid (final concentration). Samples were centrifuged in a microtiter plate at 4000 rpm for 10 min. Supernatants were applied to reverse phase HPLC on a Waters Symmetry C18 column, equipped with a Waters Sentry Guard column. Isocratic HPLC runs were performed at RT at a flow rate of 1 ml/min in acetonitrile:water 48:52 as running solvent. Radioactivity was monitored in the eluate by a Packard Flow Scintillation Analyzer. Total radioactivity for estrone and estradiol were determined in each sample and percent conversion of estradiol to estrone was calculated according to the following formula:
(§1) Percent inhibition was calculated flowingly: % inhibition=100−% conversion

Series [3] concerns the target T2, Recombinant Human 17β-HSD1 (Homo sapiens, UniProt P14061).
T2 construct: made in house; host or cells: Sd9 (Sf9) insect cells, baculovirus (Bac to Bac Expression System)
T2 sequence (P14061 1-328): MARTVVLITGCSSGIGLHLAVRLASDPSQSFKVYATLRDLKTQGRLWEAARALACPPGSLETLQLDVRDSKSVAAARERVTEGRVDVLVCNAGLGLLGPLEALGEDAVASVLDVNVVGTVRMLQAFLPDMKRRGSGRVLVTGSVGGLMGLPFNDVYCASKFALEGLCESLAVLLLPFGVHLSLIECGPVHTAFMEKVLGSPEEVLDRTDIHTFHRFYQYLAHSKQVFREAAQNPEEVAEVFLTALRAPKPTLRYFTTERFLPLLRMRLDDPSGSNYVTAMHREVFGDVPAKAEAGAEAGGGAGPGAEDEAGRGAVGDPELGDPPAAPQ
The series can be described thus: Inhibition of recombinant human 17β-HSD1 (conversion of 3H-estrone to estradiol, HPLC). The format is biochemical. The settings on record: inhibitor at 1 μM; 30 nM estrone, 1 mM NADPH, 30 min at RT; read-out: 17β-HDS1 Inhibition % at 1 μM. As to the method:
17β-HSD1 Production and Isolation:
Recombinant baculovirus was generated by the “Bac to Bac Expression System” (Invitrogen). Recombinant bacmid was transfected to Sd9 insect cells using “Cellfectin Reagent” (Invitrogen). 60 h later cells were harvested; the microsomal fraction was isolated as described by Puranen, T. J., Poutanen, M. H., Peltoketo, H. E., Vihko, P. T. and Vihko, R. K. (1994) Site-directed mutagenesis of the putative active site of human 17 β-hydroxysteroid dehydrogenase type 1. Biochem. J. 304: 289-293. Aliquots were stored frozen until determination of enzymatic activity.
Assay—Inhibition of Recombinant Human 17β-HSD1:
Recombinant protein (1 μg/ml) was incubated in 20 mM KH2PO4 pH 7.4 with 30 nM estrone (including 800.000 cpm/ml of ^3H-estrone) and 1 mM NADPH for 30 min at RT, in the presence of the potential inhibitor at concentrations 1 μM or 0.1 μM. Inhibitor stock solutions were prepared in DMSO. Final concentration of DMSO was adjusted to 1% in all samples. The enzyme reaction was stopped by addition of 10% trichloroacetic acid (final concentration). Samples were centrifuged in a microtiter plate at 4000 rpm for 10 min. Supernatants were applied to reverse phase HPLC on a Waters Symmetry C18 column, equipped with a Waters Sentry Guard column. Isocratic HPLC runs were performed at RT at a flow rate of 1 ml/min in acetonitrile:water 48:52 as running solvent. Radioactivity was monitored in the eluate by a Packard Flow Scintillation Analyzer. Total radioactivity for estrone and estradiol were determined in each sample and percent conversion of estrone to estradiol was calculated according to the following formula:
as §1

As a reminder, the inhibition is the percentage by which the read-out fell short of the control.

Regarding `CCCC[C@]1(O)C[C@@H](CCC(=O)Nc2ncc(C)s2)C2C3CCc4cc(O)ccc4C3CC[C@@]21C` (stereo partly drawn) [Compound 19, 3-((13S,15R,17S)-17-butyl-3,17-dihydroxy-13-methyl-7,8,9,11,12,13,14,15,16,17-decahydro-6H-cyclopenta[a]phenanthren-15-yl)-N-(5-methylthiazol-2-yl)propanamide], the “In vitro metabolic stability, % remaining after 60 min” value in series [1] stood at 90%. In addition, the inhibition at 1 µM is 6% in series [2] and 93% in series [3].

Consider `CC(=O)O[C@H]1C[C@@H](CCC(=O)Nc2ncc(C)s2)C2C3CCc4cc(OC(=O)c5ccccc5)ccc4C3CC[C@@]21C` (stereo partly drawn) [Compound 55, Benzoic acid (13S,15R,17S)-17-acetoxy-13-methyl-15-[2-(5-methylthiazol-2-ylcarbamoyl)-ethyl]-17-oxo-7,8,9,11,12,13,14,15,16,17-decahydro-6H-cyclopenta[a]phenanthren-3-yl ester], for which the “In vitro metabolic stability, % remaining after 60 min” value in series [1] was 47%.

For the compound `Cc1cnc(NC(=O)CC[C@@H]2C[C@H](NCC(C)C)[C@@]3(C)CCC4c5cc(C(C)(C)C)c(O)cc5CCC4C23)s1` (stereo partly drawn) [Compound 75b, 3-((13S,15R)-2-tert-Butyl-3-Hydroxy-17-isobutylamino-13-methyl-7,8,9,11,12,13,14,15,16,17-decahydro-6H-cyclopenta[a]phenanthren-15-yl]-N-(5-methylthiazol-2-yl)propionamide], the inhibition at 1 µM in series [2] amounted to 13%; in series [3], 77%.

Consider `COCCNC1C[C@@H](CCC(=O)Nc2ncc(C)s2)C2C3CCc4cc(O)c(C(C)(C)C)cc4C3CC[C@]12C` (stereo partly drawn) [Compound 79, 3-((13S,15R)-2-tert-Butyl-3-hydroxy-17-(2-methoxyethylamino)-13-methyl-7,8,9,11,12,13,14,15,16,17-decahydro-6H-cyclopenta[a]phenanthren-15-yl)-N-(5-methylthiazol-2-yl)propionamide], for which the inhibition at 1 µM in series [2] was 17%; in series [3], 75%.

On to `Cc1cnc(NC(=O)CC[C@@H]2C[C@@](O)(CC#N)[C@@]3(C)CCC4c5cc(Br)c(O)c(Br)c5CCC4C23)s1` (stereo partly drawn) [Compound 30, 3-((13S,15R,17R)-2,4-dibromo-17-(cyanomethyl)-3,17-dihydroxy-13-methyl-7,8,9,11,12,13,14,15,16,17-decahydro-6H-cyclopenta[a]phenanthren-15-yl)-N-(5-methylthiazol-2-yl)propanamide], for which the inhibition at 1 µM stood at 7% in series [2] and 52% in series [3].

Regarding `Cc1cnc(NC(=O)CC[C@@H]2CC(O)[C@@]3(C)CCC4c5ccccc5CCC4C23)s1` (stereo partly drawn) [Compound 67, 3-((13S,15R)-17-Hydroxy13-methyl-7,8,9,11,12,13,14,15,16,17-decahydro-6H-cyclopenta[a]phenanthren-15-yl)-N-(5-methylthiazol-2-yl)propanamide], the inhibition at 1 µM in series [2] worked out at 30%; in series [3] it was 74%.

Regarding `CC(=O)O[C@H]1C[C@@H](CCC(=O)Nc2ncc(C)s2)C2C3CCc4cc(O)ccc4C3CC[C@@]21C` (stereo partly shown) [Compound 36], the values for the inhibition at 1 µM in series [2] and in series [3] were 3% and 64%, respectively.

For the compound `CO[C@H]1C[C@@H](CCC(=O)Nc2ncc(C)s2)C2C3CCc4cc(O)ccc4C3CC[C@@]21C` (stereo partly drawn) [Compound 17, 3-((13S,15R,17S)-3-hydroxy-17-methoxy-13-methyl-7,8,9,11,12,13,14,15,16,17-decahydro-6H-cyclopenta[a]phenanthren-15-yl)-N-(5-methylthiazol-2-yl)propanamide], the “In vitro metabolic stability, % remaining after 60 min” value in series [1] was 37%. The results for the inhibition at 1 µM in series [2] and in series [3] were 4% and 79%, respectively.

As to `COc1ccc2c(c1)CCC1C2CC[C@@]2(C)C1[C@H](CCC(=O)Nc1ncc(C)s1)C[C@@H]2OP(=O)(O)O` (stereo partly drawn) [Compound 46, Phosphoric acid mono-{(13S,15R,17S)-3-methoxy-13-methyl-15-[2-(5-methylthiazol-2-ylcarbamoyl)-ethyl]-17-oxo-7,8,9,11,12,13,14,15,16,17-decahydro-6H-cyclopenta[a]phenanthren-17-yl}ester], the inhibition at 1 µM was determined as 1% in series [2] and 84% in series [3].

The values above are taken from patent publication US9850272B2, “Therapeutically active estratrienthiazole derivatives as inhibitors of 17.beta-hydroxy-steroid dehydrogenase, type 1” (FORENDO PHARMA LTD, priority 2013, dated 2017).
